# Laboratory results published in paper PMC5352362, “Molecular and functional evaluation of a novel HIF inhibitor, benzopyranyl 1,2,3-triazole compound” (Oncotarget, 2016).
# Experiments:
# HIF-1α [1] = target: T1, HIF-1α (Homo sapiens, UniProt Q16665); experiment: Western blot of HIF-1α protein in hypoxic HEK-293 cells; type: cell-based; conditions: HEK293, 1 nM, hypoxia 16 h, read-out: downregulation of HIF-1α protein expression
# Procedure: (B, C) After HEK-293 cells (B) and A549 cells (C) were treated with Compound 12 (at concentrations of 0 nM, 0.1 nM, 1 nM, 10 nM, 100 nM, and 1000 nM) under hypoxic conditions for 16 h, expression of HIF-1α was determined by western blot analysis and then graphed. (D, E) Half maximal inhibitory concentration (IC50) values were calculated using GraphPad Prism software, using the quantified HIF-1α levels determined in B and C.
# HEK-293 cells and A549 cells were treated with Compound 12, at 0.1–1000 nM concentrations, under hypoxic conditions for 16 h.
# Proteins extracted from cells using PRO-PREP (iNtRon Biotech, South Korea) were separated by SDS-PAGE and transferred to a nitrocellulose membrane (Whatman, Maidstone, UK). Membranes were blocked with 5% skim milk in Tris-buffered saline (TBS) containing 0.1% Tween-20 for 30 min at room temperature (RT). After blocking, membranes were incubated with specific primary antibodies overnight at 4°C, followed by incubation with horseradish peroxidase-conjugated mouse- or rabbit-IgG for 1 h at RT. Antibody binding was detected using an enhanced chemiluminescence (ECL) kit (BioRad, Hercules, CA) according to the manufacturer's instructions. […]
# HIF-1α [2] = target: T1, HIF-1α; experiment: Immunofluorescence of nuclear HIF-1α in A549 cells; type: cell-based; conditions: 1–100 nM, hypoxia 16 h
# Procedure: To further confirm the effects of Compound 12 on the inhibition of HIF-1α protein expression, we performed an immunofluorescent assay in A549 cells. Cells were treated with Compound 12 (1–100 nM) for 16 h under hypoxic conditions, and were then fixed with paraformaldehyde. Fixed cells were processed to allow immunostaining of HIF-1α by a HIF-1α antibody.
# Figure 4 Compound 12 increased hydroxylation and proteasome-mediated degradation of HIF-1α (A) A549 cells were treated with Compound 12 (at concentrations of 0 nM, 1 nM, 10 nM, and 100 nM) for 16 h. […] Cells were immediately treated with cycloheximide (CHX, 100 μg/mL) for the time indicated, and HIF-1α protein levels were determined by western blotting. β-actin was used as an internal control. Half-life (t1/2) of HIF-1α protein was determined using relative expression levels of HIF-1α. […] The expression levels of HIF-1α, hydroxylated (OH)-HIF-1α at P402 or P564, and PHD2 were determined via western blotting using specific antibodies. […] Relative levels of ubiquitinated HIF-1α were quantified and graphed.
# Cells were cultured on coverslips in four-well plates at a density of 1 × 10^5 cells/well, and allowed to attach for 24 h. […] Coverslips were mounted on slides, and cells were observed using fluorescence microscopy at 400X magnification (Carl Zeiss, AG, Germany).
# secreted VEGF = experiment: VEGF ELISA of A549 culture media; type: cell-based, human; conditions: A549 cells, 10 and 100 nM, 16 h
# Description: As HIF-1α regulates transcription of its target genes, which are involved in angiogenesis, glucose metabolism, and metastasis in tumor progression, we determined the effects of Compound 12 on HIF-1 target gene expression at the mRNA level by semiquantitative RT-PCR. […] Thus, we checked secreted VEGF protein levels in culture media via ELISA.
# Figure 5 Compound 12 suppressed HIF-1α target gene expression, and confirmation of in vitro results via determination of effects on angiogenesis in vivo (A) A549 cells were treated with Compound 12 (at concentrations of 0 nM, 1 nM, 10 nM, and 100 nM) for 16 h. The mRNA levels of HIF-1α target genes were determined by semiquantitative RT-PCR. β-actin was used as an internal control. D. DMSO vehicle control. N, normoxia; H, hypoxia. […] Media supernatant was collected, and secreted VEGF was determined by ELISA after removal of cellular debris. […] Cells that migrated through the membrane (8 μm pore size) were stained with hematoxylin and eosin, pictured as shown in upper panel, and counted (graph). *P < 0.05, **P < 0.01 versus VEGF-treated control. […] (F) Compound 12 (0.1 μg and 1 μg dosages) and retinoic acid (RA, positive control) were applied to the ED 4.5 CAM for two days, neovessel formation from the large vessels was observed, and percentages of positive angiogenic eggs (from total eggs tested) were calculated. […]
# HUVECs = experiment: BrdU cell proliferation assay, VEGF-induced; type: cell-based, human; conditions: VEGF 20 ng/mL
# Procedure: Figure 5 Compound 12 suppressed HIF-1α target gene expression, and confirmation of in vitro results via determination of effects on angiogenesis in vivo (A) A549 cells were treated with Compound 12 (at concentrations of 0 nM, 1 nM, 10 nM, and 100 nM) for 16 h. The mRNA levels of HIF-1α target genes were determined by semiquantitative RT-PCR. β-actin was used as an internal control. D. DMSO vehicle control. N, normoxia; H, hypoxia. (B) A549 cells were treated with serum-reduced culture media containing Compound 12 (at concentrations of 0 nM, 10 nM, and 100 nM) for 16 h. Media supernatant was collected, and secreted VEGF was determined by ELISA after removal of cellular debris. N, normoxia; H, hypoxia. **P < 0.01 versus hypoxia (H) DMSO (D)-treated control. (C) HUVECs were treated with Compound 12, at the indicated concentrations, in the presence of VEGF (20 ng/mL) for 24 h in 1% serum-containing media. […] Cells that migrated through the membrane (8 μm pore size) were stained with hematoxylin and eosin, pictured as shown in upper panel, and counted (graph). *P < 0.05, **P < 0.01 versus VEGF-treated control. […] (F) Compound 12 (0.1 μg and 1 μg dosages) and retinoic acid (RA, positive control) were applied to the ED 4.5 CAM for two days, neovessel formation from the large vessels was observed, and percentages of positive angiogenic eggs (from total eggs tested) were calculated. […]
# T1 sequence (Q16665 whole entry): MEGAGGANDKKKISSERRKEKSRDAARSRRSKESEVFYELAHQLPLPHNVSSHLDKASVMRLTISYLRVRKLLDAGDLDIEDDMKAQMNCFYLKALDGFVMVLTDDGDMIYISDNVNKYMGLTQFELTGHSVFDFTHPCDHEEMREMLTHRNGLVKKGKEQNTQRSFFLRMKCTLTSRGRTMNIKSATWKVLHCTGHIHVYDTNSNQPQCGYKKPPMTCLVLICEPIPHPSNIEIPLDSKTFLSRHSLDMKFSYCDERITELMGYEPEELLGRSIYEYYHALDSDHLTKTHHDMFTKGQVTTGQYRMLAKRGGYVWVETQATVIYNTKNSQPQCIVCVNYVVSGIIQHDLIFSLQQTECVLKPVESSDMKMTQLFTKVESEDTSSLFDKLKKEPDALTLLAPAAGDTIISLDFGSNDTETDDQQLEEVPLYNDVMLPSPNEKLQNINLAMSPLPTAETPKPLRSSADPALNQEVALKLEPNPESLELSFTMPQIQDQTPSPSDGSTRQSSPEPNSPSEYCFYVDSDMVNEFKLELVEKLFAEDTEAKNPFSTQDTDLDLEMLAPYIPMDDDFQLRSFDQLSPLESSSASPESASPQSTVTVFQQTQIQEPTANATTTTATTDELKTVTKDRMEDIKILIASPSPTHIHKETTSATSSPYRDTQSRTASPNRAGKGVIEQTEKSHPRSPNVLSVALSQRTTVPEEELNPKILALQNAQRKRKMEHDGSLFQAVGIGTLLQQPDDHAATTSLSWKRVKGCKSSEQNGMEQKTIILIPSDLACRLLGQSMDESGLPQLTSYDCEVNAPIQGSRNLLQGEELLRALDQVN
compound,measurement,setting,value
"COc1ccc(-c2cn(CC3(C)C=Cc4cc([N+](=O)[O-])ccc4O3)nn2)cc1 (centres unmarked) [Compound 12, 4-(4-methoxyphenyl)-1-((2-methyl-6-nitro-2H-chromen-2-yl)methyl)-1H-1,2,3-triazole]",inhibition at 0.001 µM,HIF-1α [1],~30%
same,accumulation of nuclear HIF-1α,HIF-1α [2],inhibited in dose-dependent manner
same,subcellular localization of HIF-1α,HIF-1α [2],did not affect
same,hypoxia-induced VEGF secretion,secreted VEGF,"significantly suppressed hypoxia-induced VEGF secretion, in a dose-dependent manner"
same,VEGF-induced endothelial cell proliferation (BrdU),HUVECs,significantly inhibited VEGF-induced proliferation
